From patent publication US12599608B2, “Methods for treating cardiac valve disease” (The Regents of the University of California, priority 2018, dated 2026)

Tests used:
N1^+/− iPSC-derived ECs = assay: Network-based small molecule screen by targeted RNA-seq of 119 genes (KNN and hierarchical clustering); assay type: cell-based, human; details: initial screen, complete agglomeration method
Text: TALEN-engineered isogenic human iPSCs that were either WT (wild-type) or N1^+/− were derived and characterized as detailed in Theodoris et al., Cell. 2015; 160:1072-1086. Isogenic iPSCs (induced pluripotent stem cells) were differentiated into ECs as previously described (Theodoris et al., 2015; White et al., Stem Cells. 2012; 31:92-103). On day 13 of the differentiation process, ECs were greater than 90% double-positive for CD31 (BD #558068) and CD144 (#FAB9381P) by FACS (fluorescence-activated cell sorting) analysis (FIGS. 9G-H). Small molecule experiments (described below) were conducted at day 15 of differentiation.
(§1) Starting on day 15 of differentiation, WT ECs were exposed to 10 μM DMSO (dimethyl sulfoxide) (n=80) while isogenic N1^+/− ECs were exposed to either 10 μM DMSO (n=80) or one of the small molecules from the LOPAC (1280 molecules) (Sigma LO1280) or Sheng Ding (315 molecules) chemical libraries. DMSO or small molecules were renewed with EC media (ScienCell #1001) changes on alternating days until the cells were ultimately collected for analysis on day 21. ECs were imaged using the IN Cell Analyzer on day 21 to evaluate morphology and cell death; wells with extensive cell death were eliminated from final analyses. For validation experiments, promising small molecules identified from the initial screen were applied to N1^+/− ECs in duplicate or triplicate along with controls of DMSO-exposed WT and N1^+/− ECs (n=4 each) using the same process as the initial screen described above.
(§2) ECs were lysed and RNA was isolated using the Qiagen RNeasy 96-well purification kit. RNA was diluted so that it was between the 10 pg-1 ng range accepted by the Cellular Research Precise targeted RNA-seq (RNA sequencing) system. Targeted RNA-seq libraries were prepared as per the Cellular Research Precise protocol (Rev 03092015), which includes both molecule and sample barcoding. The selected 119 target genes (see Table 1) included 3 low-expressing housekeeping genes for normalization (CHMP2A, C1orf43, REEP5) and either predicted central regulatory nodes or peripheral genes positioned within varied regions of the N1 network to permit identification of small molecules that affected central nodes as well as those that may have a synergistic effect in combination due to regulating different aspects of the network. Briefly, RNA was added to the Precise Encoding Plate containing indexed dT primer, dNTPs, and Spike-in mRNA controls and incubated at 65° C. for 3 minutes followed by cooling on ice. A master-mix of RT enzyme, RNase inhibitor, and buffer was then added to the samples, and they were incubated at 42° C. for 30 minutes followed by 80° C. for 5 minutes. Each plate of samples was combined into a single 2 ml tube and purified with AMPureXP beads. N1 PCR master-mix was added and samples were incubated for 94° C. for 2 minutes, followed by 15 cycles of 94° C. for 30 seconds, 55° C. for 3 minutes, and 68° C. for 1 minute, followed by 68° C. for 7 minutes. Samples were purified with AMPureXP beads and N2 PCR master-mix was added. Samples were incubated with the same thermal cycler program as above for 12 cycles. These final libraries were then purified with AMPureXP beads and analyzed for quality and concentration by Agilent Bioanalyzer and Illumina Library Quantification Kit (KAPA Biosystems), respectively. Libraries were normalized to equivalent concentration and pooled for paired-end 100 bp sequencing on an Illumina HiSeq 2500 instrument.
Sequencing data was analyzed using Cellular Research Precise Analysis Pipeline on the SevenBridges platform, which included analyzing sequencing quality with FASTQC, trimming adapters and filtering reads, demultiplexing based on sample barcodes, aligning reads with Bowtie 2, and determining the number of unique molecular indices per gene. Network inference was based on mutual information of gene expression from all DMSO- and small molecule-exposed samples as described in Margolin et al., BMC Bioinformatics. […]

N1^+/− ECs = assay: Validation trials of screen candidates by targeted RNA-seq with the trained KNN algorithm; assay type: cell-based, human; details: duplicate or triplicate; one or more replicates classified as WT
Description: as §1, §2
Sequencing data was analyzed using Cellular Research Precise Analysis Pipeline on the SevenBridges platform, which included analyzing sequencing quality with FASTQC, trimming adapters and filtering reads, demultiplexing based on sample barcodes, aligning reads with Bowtie 2, and determining the number of unique molecular indices per gene. Network inference was based on mutual information of gene expression from all DMSO- and small molecule-exposed samples as described in Margolin et al., BMC Bioinformatics. 2006; 7 Suppl 1:S7. Network diagram was generated using NetworkX (Hagberg et al., Exploring Network Structure, Dynamics, and Function using NetworkX. SciPy. 2008) based on network connections inferred from the small molecule screen data as described above with colors based on whole transcriptome RNA-seq gene expression of isogenic N1^+/− compared to WT ECs.
Promising small molecules were identified using either K-nearest neighbor (KNN) or hierarchical clustering algorithms. […]

N1^+/−/mTR^G2 mice = assay: In vivo small molecule treatment, staining of AV calcification with Alizarin Red; details: for reduction of the extent of calcification / reduction of the number of mice that developed calcification: compared to DMSO-treated mice, Alizarin red; for reduction of the extent of calcification: TG003 n=2, p=0.09, XCT790 single calcified mouse, not statistically significant; for reduction of the number of mice that developed calcification: TG003 p=0.09, XCT790 not statistically significant; for number of mice with calcified AVs by Alizarin red staining: four weeks of treatment from fourth postnatal week, DMSO 14 of 86; for AV calcification, overall conclusion: summary statement
Description: Protocols were reviewed/approved by UCSF Institutional Animal Care and Use Committee, San Francisco, CA. N1^+/− and mTR^het C57Bl6 mice (purchased from Jackson Labs: #002797 and #004132, respectively) were used to generate double mutant animals. Breedings were performed as previously described (Theodoris et al., The Journal of Clinical Investigation. 2017; 127:1683) to generate N1^+/−/[…] mice. Mice were treated with XCT790 (5 mg/kg/day), TG003 (0.3 mg/kg/day or 2 mg/kg/day, results pooled for analysis), Fmoc-leu (0.6 mg/kg/day), GSK837149A (4.5 mg/kg/day), biperiden (10 mg/kg/day), CB1954 (15 mg/kg/day), putrescine (0.26 mg/kg/day), naloxone (25 mg/kg/day), all by intraperitoneal injection, and RO4929097 (60 mg/kg/day) by oral gavage, or equivalent volume of solvent (DMSO or saline) for four weeks starting at the fourth postnatal week.
Hearts were fixed by perfusion fixation under anesthesia using isofluorane by ventricular KCl injection followed by PBS wash and fixation with 4% paraformaldehyde. Hearts were then incubated in 10% formalin overnight. The cardiac apex was cut parallel to the aortic root, and the heart tissue was then paraffin processed using standard protocols and embedded with the cut surface down. The resulting paraffin block was trimmed and angled to obtain a full three-leaflet view of the aortic root. The root was serially sectioned at […] intervals from the base of the aortic sinus and mounted on slides. The slides were then deparaffinized, and calcification was stained with 2% Alizarin Red (pH 4.1-4.3) as previously described (Theodoris et al., The Journal of Clinical Investigation. 2017; 127:1683).

Question: `CCN1/C(=C/C(C)=O)Sc2ccc(OC)cc21` [TG003, (Z)-1-(3-ethyl-5-methoxy-2,3-dihydrobenzothiazol-2-ylidene)propan-2-one] was tested. Which “hierarchical clustering of transcriptional profile of treated N1-haploinsufficient ECs with WT ECs” value (N1^+/− iPSC-derived ECs) did it give?
Answer: Its value is “cluster with WT ECs”.

Question: And the “KNN classification of treated N1^+/− ECs in validation trials” value (N1^+/− ECs)?
Answer: The value was “classified as WT”.

Question: What about the “reduction of the extent of calcification” value (N1^+/−/mTR^G2 mice) of the same molecule?
Answer: Its value is 80%.

Question: And the “reduction of the number of mice that developed calcification” value (N1^+/−/mTR^G2 mice)?
Answer: The value was 68%.

Question: What about the “number of mice with calcified AVs by Alizarin red staining” value (N1^+/−/mTR^G2 mice) of the same molecule?
Answer: The value was 2 of 38.

Question: And the “AV calcification, overall conclusion” value (N1^+/−/mTR^G2 mice)?
Answer: The value was “showed a trend of reducing AV calcification”.

Question: `COc1cc(/C=C(\C#N)C(=O)Nc2nnc(C(F)(F)F)s2)ccc1OCc1ccc(C(F)(F)F)cc1C(F)(F)F` [XCT790, 2E-3-(4-{[2,4-bis(trifluoromethyl)benzyl]oxy}-3-methoxyphenyl)-2-cyano-N-[5-(trifluoromethyl)-1,3,4-thiadiazol-2-yl]acrylamide] was tested. Which “hierarchical clustering of transcriptional profile of treated N1-haploinsufficient ECs with WT ECs” value (N1^+/− iPSC-derived ECs) did it give?
Answer: The value was “cluster with WT ECs”.

Question: And the “KNN classification of treated N1^+/− ECs in validation trials” value (N1^+/− ECs)?
Answer: The value was “classified as WT”.

Question: What about the “reduction of the extent of calcification” value (N1^+/−/mTR^G2 mice) of the same molecule?
Answer: The value was 99%.

Question: And the “reduction of the number of mice that developed calcification” value (N1^+/−/mTR^G2 mice)?
Answer: The value was 64%.

Question: What about the “number of mice with calcified AVs by Alizarin red staining” value (N1^+/−/mTR^G2 mice) of the same molecule?
Answer: The value was 1 of 17.

Question: What about the “AV calcification, overall conclusion” value (N1^+/−/mTR^G2 mice) of the same molecule?
Answer: Its value is “showed a trend of reducing AV calcification”.
